Test results taken from patent US12528767B2, “HDAC6 inhibitors and uses thereof” (Eikonizo Therapeutics, Inc., priority 2019, dated 2026).
Where two headings read alike, the source gives them in different places.

What was measured:
Full length Human HDAC6 = biological target: T1, Full length Human HDAC6 (Homo sapiens, UniProt Q9UBN7); conditions: for Selectivity (6 v 8) (fold): ratio of HDAC8 IC50/HDAC6 IC50
T1 sequence (Q9UBN7 1-1215): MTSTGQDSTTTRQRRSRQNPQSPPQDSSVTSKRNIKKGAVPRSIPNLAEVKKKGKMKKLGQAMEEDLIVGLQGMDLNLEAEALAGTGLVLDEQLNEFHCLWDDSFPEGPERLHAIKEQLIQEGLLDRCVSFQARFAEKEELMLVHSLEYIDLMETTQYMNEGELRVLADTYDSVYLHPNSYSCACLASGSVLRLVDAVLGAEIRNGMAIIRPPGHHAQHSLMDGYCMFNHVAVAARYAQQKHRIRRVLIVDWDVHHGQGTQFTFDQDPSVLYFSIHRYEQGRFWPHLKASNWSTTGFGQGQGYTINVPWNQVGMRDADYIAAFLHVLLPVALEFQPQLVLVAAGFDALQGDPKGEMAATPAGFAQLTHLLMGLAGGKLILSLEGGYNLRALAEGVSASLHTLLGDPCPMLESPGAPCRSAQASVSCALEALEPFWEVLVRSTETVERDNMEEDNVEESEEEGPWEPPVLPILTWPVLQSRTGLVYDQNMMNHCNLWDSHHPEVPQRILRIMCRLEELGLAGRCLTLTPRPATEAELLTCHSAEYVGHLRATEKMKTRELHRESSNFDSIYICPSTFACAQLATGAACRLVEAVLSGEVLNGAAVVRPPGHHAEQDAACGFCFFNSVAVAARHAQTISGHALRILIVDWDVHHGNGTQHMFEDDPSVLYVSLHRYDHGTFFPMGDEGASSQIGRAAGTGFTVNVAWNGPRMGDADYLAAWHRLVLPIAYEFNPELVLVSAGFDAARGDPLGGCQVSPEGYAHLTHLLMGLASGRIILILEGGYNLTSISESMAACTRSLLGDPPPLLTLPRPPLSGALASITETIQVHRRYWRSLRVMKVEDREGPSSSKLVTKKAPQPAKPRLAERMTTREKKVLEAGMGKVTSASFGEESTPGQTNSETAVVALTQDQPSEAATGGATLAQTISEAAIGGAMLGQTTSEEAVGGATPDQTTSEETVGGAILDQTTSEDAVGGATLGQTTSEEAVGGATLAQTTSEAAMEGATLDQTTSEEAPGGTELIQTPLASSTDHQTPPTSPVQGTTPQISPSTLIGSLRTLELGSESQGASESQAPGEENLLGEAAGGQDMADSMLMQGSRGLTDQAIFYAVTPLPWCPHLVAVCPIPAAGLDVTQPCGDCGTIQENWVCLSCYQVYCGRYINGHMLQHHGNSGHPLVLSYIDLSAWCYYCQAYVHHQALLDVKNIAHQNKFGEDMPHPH

Full length Human HDAC8 = biological target: T2, Full length Human HDAC8 (Homo sapiens, UniProt Q9BY41)
T2 sequence (Q9BY41 1-377): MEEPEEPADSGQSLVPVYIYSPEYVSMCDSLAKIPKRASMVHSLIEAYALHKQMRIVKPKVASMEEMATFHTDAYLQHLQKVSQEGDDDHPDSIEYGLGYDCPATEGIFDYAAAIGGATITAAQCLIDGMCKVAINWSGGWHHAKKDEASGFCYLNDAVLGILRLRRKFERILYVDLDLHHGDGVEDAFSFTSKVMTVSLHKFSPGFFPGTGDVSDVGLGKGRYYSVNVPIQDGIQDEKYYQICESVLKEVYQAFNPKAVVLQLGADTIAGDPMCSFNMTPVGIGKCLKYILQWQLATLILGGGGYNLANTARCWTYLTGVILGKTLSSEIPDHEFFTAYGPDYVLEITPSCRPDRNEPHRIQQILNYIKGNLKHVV

SMILES	IC50 (Full length Human HDAC6)	Selectivity (6 v 8) (fold) (Full length Human HDAC6; Table 1, number)	Selectivity (6 v 8) (fold) (Full length Human HDAC6; Table 1, range class)	IC50 (Full length Human HDAC8)
O=C(NO)c1cc(F)c2c(c1)CCN([C@@H]1CCC13CCCCC3)C2 (single isomer, unassigned) [compound 8]	100 to 1000 nM	198.5 fold	IV (IV: >100-1000)	10000 to 100000 nM
O=C(NO)c1cc(F)c2c(c1)CCN([C@H]1CCC13CCCCC3)C2 (single isomer, unassigned) [compound 9]	1 to 100 nM	207.1 fold	IV (IV: >100-1000)	10000 to 100000 nM
O=C(NO)c1ccc2c(c1)CCN1CCCC[C@@H]21 (single isomer, unassigned) [compound 89]		3.1 fold	II (II: >1-10)	
O=C(NO)c1ccc2c(c1)CCN1CCCC[C@H]21 (single isomer, unassigned) [compound 90]		3.6 fold	II (II: >1-10)	
O=C(NO)c1ccc2c(c1)C[C@H]1CCCN1C2 (single isomer, unassigned) [compound 122]		14.5 fold	III (III: >10-100)	
CC1(C)C[C@H]2Cc3cc(C(=O)NO)cc(F)c3CN2C1 (single isomer, unassigned) [compound 125]	1 to 100 nM	82 fold	III (III: >10-100)	1000 to 10000 nM
CC1(C)C[C@@H]2Cc3cc(C(=O)NO)cc(F)c3CN2C1 (single isomer, unassigned) [compound 126]		37.4 fold	III (III: >10-100)	
O=C(NO)c1ccc2c(c1)CN1CCCC[C@@H]1C2 (single isomer, unassigned) [compound 143]		88.8 fold	III (III: >10-100)	
O=C(NO)c1ccc2c(c1)CN1CCCC[C@H]1C2 (single isomer, unassigned) [compound 144]		26.7 fold	III (III: >10-100)	
O=C(NO)c1ccc2c(c1)CCN1CCC[C@H]21 (single isomer, unassigned) [compound 148]		1.9 fold	II (II: >1-10)	
O=C(NO)c1ccc2c(c1)CCN1CCC[C@@H]21 (single isomer, unassigned) [compound 149]		6.5 fold	II (II: >1-10)	
O=C(NO)c1ccc2c(c1)CN1CCC[C@H]21 (single isomer, unassigned) [compound 164]		2.3 fold	II (II: >1-10)	
O=C(NO)c1ccc2c(c1)CN1CCC[C@@H]21 (single isomer, unassigned) [compound 165]	100 to 1000 nM	15 fold	III (III: >10-100)	1000 to 10000 nM
CC1(CN2CCc3cc(C(=O)NO)cc(F)c3C2)CC1 [compound 1, 8-fluoro-N-hydroxy-2-((1-methylcyclopropyl)methyl)-1,2,3,4-tetrahydroisoquinoline-6-carboxamide]	1 to 100 nM	145.7 fold	IV (IV: >100-1000)	10000 to 100000 nM
O=C(NO)c1cc(F)c2c(c1)CCN(CC1CC1)C2 [compound 2]	1 to 100 nM			1000 to 10000 nM
O=C(NO)c1cc(F)c2c(c1)CCN(CC1CCC1)C2 [compound 3]	1 to 100 nM			1000 to 10000 nM
O=C(NO)c1cc(F)c2c(c1)CCN(C1CCC1)C2 [compound 4]	1 to 100 nM			10000 to 100000 nM
O=C(NO)c1cc(F)c2c(c1)CCN(CC(F)(F)F)C2 [compound 7]	1 to 100 nM			1000 to 10000 nM
O=C(NO)c1cc(F)c2c(c1)CN(CC13CC4CC(CC(C4)O1)C3)C2 [compound 13]	100 to 1000 nM	168.4 fold	IV (IV: >100-1000)	10000 to 100000 nM
O=C(NO)c1cc(F)c2c(c1)CCN(CC13CC4CC(CC(C4)O1)C3)C2 [compound 14]	1 to 100 nM			10000 to 100000 nM
O=C(NO)c1cc(F)c2c(c1)CCN(C1CCC13CCCCC3)C2 (stereo not drawn) [compound 15]	1 to 100 nM	209.2 fold	IV (IV: >100-1000)	10000 to 100000 nM
O=C(NO)c1ccc2c(c1F)CCN(CC13CC4CC(CC(C4)C1)C3)C2 [compound 21]	100 to 1000 nM	50.2 fold	III (III: >10-100)	1000 to 10000 nM
O=C(NO)c1cc(F)c2c(c1)CCN(CC13C4C5C6C4C1C6C53)C2 (stereo not drawn) [compound 25]	1 to 100 nM			10000 to 100000 nM

The next lines start with the values.

IC50 (Full length Human HDAC6)	Selectivity (6 v 8) (fold) (Full length Human HDAC6; Table 1, number)	Selectivity (6 v 8) (fold) (Full length Human HDAC6; Table 1, range class)	IC50 (Full length Human HDAC8)	SMILES
	262.4 fold	IV (IV: >100-1000)		CC[C@H](c1ccccc1)N1CCc2cc(C(=O)NO)cc(F)c2C1 (single isomer, unassigned) [compound 30]
	468.8 fold	IV (IV: >100-1000)		CC[C@@H](c1ccccc1)N1CCc2cc(C(=O)NO)cc(F)c2C1 (single isomer, unassigned) [compound 31]
	15.6 fold	III (III: >10-100)		CC[C@@H]1CCCN1Cc1ccc(C(=O)NO)cc1F (single isomer, unassigned) [compound 48]
	15.4 fold	III (III: >10-100)		CC[C@H]1CCCN1Cc1ccc(C(=O)NO)cc1F (single isomer, unassigned) [compound 49]
	>2.9 fold	V (V: >1000)		O=C(NO)c1cc(F)c2c(c1)C[C@@H]1COCCN1C2 (single isomer, unassigned) [compound 129]
	>2.8 fold	V (V: >1000)		O=C(NO)c1cc(F)c2c(c1)C[C@H]1COCCN1C2 (single isomer, unassigned) [compound 130]
100 to 1000 nM			1000 to 10000 nM	O=C(NO)c1ccc2c(c1)C[C@@H]1COCC(=O)N1C2 (single isomer, unassigned) [compound 133]
	126.4 fold	IV (IV: >100-1000)		O=C(NO)c1cc(F)c2c(c1)C[C@@H]1CCC3(CCCCC3)CN1C2 (single isomer, unassigned) [compound 137]
100 to 1000 nM	45 fold	III (III: >10-100)	10000 to 100000 nM	O=C(NO)c1cc(F)c2c(c1)C[C@H]1CCC3(CCCCC3)CN1C2 (single isomer, unassigned) [compound 138]
	1.8 fold	II (II: >1-10)		CN1Cc2cc(C(=O)NO)ccc2[C@@H]2CCCN21 (single isomer, unassigned) [compound 160]
	2 fold	II (II: >1-10)		CN1Cc2cc(C(=O)NO)ccc2[C@H]2CCCN21 (single isomer, unassigned) [compound 161]
1 to 100 nM	30.2 fold	III (III: >10-100)	1000 to 10000 nM	CN1CC2(CCCCC2)CC[C@H]1Cc1cc(F)cc(C(=O)NO)c1 (single isomer, unassigned) [compound 171]
1 to 100 nM	69.7 fold	III (III: >10-100)	1000 to 10000 nM	O=C(NO)c1ccc2c(c1)CCN(CC13CC4CC(CC(C4)C1)C3)C2 [compound 26]
1 to 100 nM			1000 to 10000 nM	Cc1cccc(C)c1CN1CCc2cc(C(=O)NO)cc(F)c2C1 [compound 28]
